Test results taken from PubChem BioAssay (NCI).
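All cell lines were grown in 96-well plates and treated with compound for 48 hours. GI50 = concentration required for 50% inhibition of growth. Definition used: TGI = concentration required for complete inhibition of growth.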

Experiments:
Assay in all cases: DTP human tumour cell line panel, 48 h; in the data active means GI50 below about 0.43 µM; inactive means the rest
NCI-H522 lung = system: NCI-H522 lung
KM12 colon = system: KM12 colon
NCI-H23 lung = system: NCI-H23 lung
M14 melanoma = system: M14 melanoma
SNB-75 CNS = system: SNB-75 CNS
T-47D breast = system: T-47D breast
SNB-19 CNS = system: SNB-19 CNS
SK-MEL-28 melanoma = system: SK-MEL-28 melanoma
SF-268 CNS = system: SF-268 CNS
NCI/ADR-RES ovarian = system: NCI/ADR-RES ovarian
TK-10 renal = system: TK-10 renal
HCT-116 colon = system: HCT-116 colon
U251 CNS = system: U251 CNS
COLO 205 colon = system: COLO 205 colon
SR leukemia = system: SR leukemia
A549 NSCLC = system: A549 NSCLC
NCI-H226 lung = system: NCI-H226 lung
OVCAR-3 ovarian = system: OVCAR-3 ovarian
HCC-2998 colon = system: HCC-2998 colon
RXF 393 renal = system: RXF 393 renal
UACC-257 melanoma = system: UACC-257 melanoma
MCF7 breast = system: MCF7 breast
OVCAR-8 ovarian = system: OVCAR-8 ovarian
UO-31 renal = system: UO-31 renal
MDA-MB-231 breast = system: MDA-MB-231 breast
SN12C renal = system: SN12C renal
HL-60(TB) leukemia = system: HL-60(TB) leukemia
BT-549 breast = system: BT-549 breast
786-0 renal = system: 786-0 renal
OVCAR-5 ovarian = system: OVCAR-5 ovarian
MOLT-4 leukemia = system: MOLT-4 leukemia
SK-MEL-2 melanoma = system: SK-MEL-2 melanoma
SK-OV-3 ovarian = system: SK-OV-3 ovarian
HCT-15 colon = system: HCT-15 colon
SK-MEL-5 melanoma = system: SK-MEL-5 melanoma
SF-295 CNS = system: SF-295 CNS
UACC-62 melanoma = system: UACC-62 melanoma
NCI-H460 lung = system: NCI-H460 lung
HT29 colon = system: HT29 colon
RPMI-8226 leukemia = system: RPMI-8226 leukemia
PC-3 prostate = system: PC-3 prostate
HOP-62 NSCLC = system: HOP-62 NSCLC
SW-620 colon = system: SW-620 colon
DU-145 prostate = system: DU-145 prostate
HS 578T breast = system: HS 578T breast
K-562 leukemia = system: K-562 leukemia
HOP-92 NSCLC = system: HOP-92 NSCLC
CAKI-1 renal = system: CAKI-1 renal
IGROV1 ovarian = system: IGROV1 ovarian
OVCAR-4 ovarian = system: OVCAR-4 ovarian
A498 renal = system: A498 renal
MDA-MB-435 = system: MDA-MB-435
LOX IMVI melanoma = system: LOX IMVI melanoma
ACHN renal = system: ACHN renal
MALME-3M melanoma = system: MALME-3M melanoma
SF-539 CNS = system: SF-539 CNS
CCRF-CEM leukemia = system: CCRF-CEM leukemia

CC(C)C[C@H](NC(=O)Cn1ccc(Nc2ccccc2)cc1=O)B(O)O
18.6 µM: TGI (SF-268 CNS)
7.16 µM: TGI (HS 578T breast)
90 µM: TGI (OVCAR-5 ovarian)
6.78 µM: TGI (A498 renal)
15.2 µM: TGI (MDA-MB-231 breast)
13.7 µM: TGI (M14 melanoma)
12.4 µM: TGI (KM12 colon)
3.38 µM: TGI (T-47D breast)
72.6 µM: TGI (HL-60(TB) leukemia)
36 µM: TGI (PC-3 prostate)
4.78 µM: TGI (RXF 393 renal)
2.29 µM: TGI (MDA-MB-435)
0.949 µM: TGI (RPMI-8226 leukemia)
40.9 µM: TGI (HOP-62 NSCLC)
8.23 µM: TGI (HOP-92 NSCLC)
28 µM: TGI (SN12C renal)
2.27 µM: TGI (LOX IMVI melanoma)
39.6 µM: TGI (UO-31 renal)
25.3 µM: TGI (SNB-75 CNS) | TGI (TK-10 renal)
2.78 µM: TGI (OVCAR-3 ovarian)
11.7 µM: TGI (BT-549 breast) | TGI (MOLT-4 leukemia)
40.1 µM: TGI (SF-295 CNS)
4.49 µM: TGI (SK-MEL-28 melanoma)
21.3 µM: TGI (SK-MEL-2 melanoma)
42.5 µM: TGI (NCI-H460 lung)
4.76 µM: TGI (HCC-2998 colon)
2.88 µM: TGI (SK-MEL-5 melanoma)
inactive: GI50 (NCI-H522 lung) 0.932 µM | GI50 (KM12 colon) 3.08 µM | GI50 (NCI-H23 lung) 3.45 µM | GI50 (M14 melanoma) 1.74 µM | GI50 (SNB-75 CNS) 4.54 µM | GI50 (T-47D breast) 1.01 µM | GI50 (SNB-19 CNS) 16.6 µM | GI50 (SK-MEL-28 melanoma) 0.665 µM | GI50 (SF-268 CNS) 2.88 µM | GI50 (NCI/ADR-RES ovarian) 65.6 µM | GI50 (TK-10 renal) 3.28 µM | GI50 (HCT-116 colon) 0.852 µM | GI50 (U251 CNS) 5.04 µM | GI50 (COLO 205 colon) 8.25 µM | GI50 (A549 NSCLC) 8.34 µM | GI50 (OVCAR-3 ovarian) 0.512 µM | GI50 (HCC-2998 colon) 2.02 µM | GI50 (RXF 393 renal) 1.81 µM | GI50 (UACC-257 melanoma) 1.3 µM | GI50 (MCF7 breast) 0.427 µM | GI50 (OVCAR-8 ovarian) 5.47 µM | GI50 (UO-31 renal) 5.59 µM | GI50 (MDA-MB-231 breast) 3.09 µM | GI50 (SN12C renal) 5.17 µM | GI50 (HL-60(TB) leukemia) 3.32 µM | GI50 (BT-549 breast) 1.19 µM | GI50 (786-0 renal) 5.55 µM | GI50 (OVCAR-5 ovarian) 6.24 µM | GI50 (MOLT-4 leukemia) 0.468 µM | GI50 (SK-MEL-2 melanoma) 1.81 µM | GI50 (SK-OV-3 ovarian) 11.5 µM | GI50 (HCT-15 colon) 8.66 µM | GI50 (SK-MEL-5 melanoma) 0.62 µM | GI50 (SF-295 CNS) 3.75 µM | GI50 (UACC-62 melanoma) 2.44 µM | GI50 (NCI-H460 lung) 8.41 µM | GI50 (HT29 colon) 1.06 µM | GI50 (PC-3 prostate) 5.06 µM | GI50 (HOP-62 NSCLC) 6.23 µM | GI50 (SW-620 colon) 2 µM | GI50 (DU-145 prostate) 10.7 µM | GI50 (HS 578T breast) 1.86 µM | GI50 (K-562 leukemia) 3.67 µM | GI50 (HOP-92 NSCLC) 2.49 µM | GI50 (CAKI-1 renal) 4.02 µM | GI50 (IGROV1 ovarian) 6.27 µM | GI50 (OVCAR-4 ovarian) 5.68 µM | GI50 (A498 renal) 1.07 µM | GI50 (MDA-MB-435) 0.593 µM | GI50 (LOX IMVI melanoma) 0.645 µM | GI50 (ACHN renal) 3.04 µM | GI50 (MALME-3M melanoma) 2.08 µM | GI50 (SF-539 CNS) 0.781 µM
13.2 µM: TGI (HT29 colon)
5.02 µM: TGI (HCT-116 colon)
8.77 µM: TGI (MALME-3M melanoma)
7.68 µM: TGI (UACC-257 melanoma)
6.44 µM: TGI (NCI-H522 lung)
> 100 µM: TGI (NCI-H23 lung) | TGI (SNB-19 CNS) | TGI (NCI/ADR-RES ovarian) | TGI (U251 CNS) | TGI (COLO 205 colon) | TGI (SR leukemia) | TGI (A549 NSCLC) | TGI (MCF7 breast) | TGI (OVCAR-8 ovarian) | TGI (786-0 renal) | TGI (SK-OV-3 ovarian) | TGI (HCT-15 colon) | TGI (DU-145 prostate) | TGI (K-562 leukemia) | TGI (IGROV1 ovarian) | TGI (OVCAR-4 ovarian) | TGI (ACHN renal)
18.1 µM: TGI (UACC-62 melanoma)
60.4 µM: TGI (CAKI-1 renal)
1.47 µM: TGI (NCI-H226 lung)
5.81 µM: TGI (SF-539 CNS)
active: GI50 (SR leukemia) 0.398 µM | GI50 (NCI-H226 lung) 0.352 µM | GI50 (RPMI-8226 leukemia) 0.345 µM
23.9 µM: TGI (SW-620 colon)

CC(C)=CC(=O)OC1C(CO)OC(Oc2cc(O)c3c(=O)cc(-c4ccc(O)c(O)c4)oc3c2)C(OC2OC(C)C(O)C(O)C2O)C1O (centres undefined)
inactive: GI50 (NCI-H522 lung) > 100 µM | GI50 (KM12 colon) > 100 µM | GI50 (NCI-H23 lung) > 100 µM | GI50 (M14 melanoma) > 100 µM | GI50 (SNB-75 CNS) > 100 µM | GI50 (T-47D breast) > 100 µM | GI50 (SNB-19 CNS) > 100 µM | GI50 (SK-MEL-28 melanoma) > 100 µM | GI50 (SF-268 CNS) > 100 µM | GI50 (NCI/ADR-RES ovarian) > 100 µM | GI50 (TK-10 renal) > 100 µM | GI50 (HCT-116 colon) > 100 µM | GI50 (U251 CNS) > 100 µM | GI50 (COLO 205 colon) > 100 µM | GI50 (SR leukemia) 50 µM | GI50 (CCRF-CEM leukemia) > 100 µM | GI50 (A549 NSCLC) > 100 µM | GI50 (NCI-H226 lung) > 100 µM | GI50 (OVCAR-3 ovarian) > 100 µM | GI50 (HCC-2998 colon) > 100 µM | GI50 (RXF 393 renal) > 100 µM | GI50 (UACC-257 melanoma) > 100 µM | GI50 (MCF7 breast) > 100 µM | GI50 (OVCAR-8 ovarian) > 100 µM | GI50 (UO-31 renal) > 100 µM | GI50 (MDA-MB-231 breast) > 100 µM | GI50 (SN12C renal) > 100 µM | GI50 (HL-60(TB) leukemia) > 100 µM | GI50 (BT-549 breast) > 100 µM | GI50 (786-0 renal) > 100 µM | GI50 (OVCAR-5 ovarian) > 100 µM | GI50 (MOLT-4 leukemia) > 100 µM | GI50 (SK-MEL-2 melanoma) > 100 µM | GI50 (SK-OV-3 ovarian) > 100 µM | GI50 (HCT-15 colon) > 100 µM | GI50 (SK-MEL-5 melanoma) > 100 µM | GI50 (SF-295 CNS) > 100 µM | GI50 (UACC-62 melanoma) > 100 µM | GI50 (NCI-H460 lung) > 100 µM | GI50 (HT29 colon) > 100 µM | GI50 (RPMI-8226 leukemia) 85.6 µM | GI50 (PC-3 prostate) > 100 µM | GI50 (HOP-62 NSCLC) > 100 µM | GI50 (SW-620 colon) > 100 µM | GI50 (DU-145 prostate) > 100 µM | GI50 (HS 578T breast) > 100 µM | GI50 (K-562 leukemia) > 100 µM | GI50 (CAKI-1 renal) > 100 µM | GI50 (IGROV1 ovarian) > 100 µM | GI50 (OVCAR-4 ovarian) > 100 µM | GI50 (A498 renal) > 100 µM | GI50 (MDA-MB-435) > 100 µM | GI50 (LOX IMVI melanoma) > 100 µM | GI50 (ACHN renal) > 100 µM | GI50 (MALME-3M melanoma) > 100 µM | GI50 (SF-539 CNS) > 100 µM
98.8 µM: TGI (SR leukemia)
> 100 µM: TGI (NCI-H522 lung) | TGI (KM12 colon) | TGI (NCI-H23 lung) | TGI (M14 melanoma) | TGI (SNB-75 CNS) | TGI (T-47D breast) | TGI (SNB-19 CNS) | TGI (SK-MEL-28 melanoma) | TGI (SF-268 CNS) | TGI (NCI/ADR-RES ovarian) | TGI (TK-10 renal) | TGI (HCT-116 colon) | TGI (U251 CNS) | TGI (COLO 205 colon) | TGI (CCRF-CEM leukemia) | TGI (A549 NSCLC) | TGI (NCI-H226 lung) | TGI (OVCAR-3 ovarian) | TGI (HCC-2998 colon) | TGI (RXF 393 renal) | TGI (UACC-257 melanoma) | TGI (MCF7 breast) | TGI (OVCAR-8 ovarian) | TGI (UO-31 renal) | TGI (MDA-MB-231 breast) | TGI (SN12C renal) | TGI (HL-60(TB) leukemia) | TGI (BT-549 breast) | TGI (786-0 renal) | TGI (OVCAR-5 ovarian) | TGI (MOLT-4 leukemia) | TGI (SK-MEL-2 melanoma) | TGI (SK-OV-3 ovarian) | TGI (HCT-15 colon) | TGI (SK-MEL-5 melanoma) | TGI (SF-295 CNS) | TGI (UACC-62 melanoma) | TGI (NCI-H460 lung) | TGI (HT29 colon) | TGI (RPMI-8226 leukemia) | TGI (PC-3 prostate) | TGI (HOP-62 NSCLC) | TGI (SW-620 colon) | TGI (DU-145 prostate) | TGI (HS 578T breast) | TGI (K-562 leukemia) | TGI (CAKI-1 renal) | TGI (IGROV1 ovarian) | TGI (OVCAR-4 ovarian) | TGI (A498 renal) | TGI (MDA-MB-435) | TGI (LOX IMVI melanoma) | TGI (ACHN renal) | TGI (MALME-3M melanoma) | TGI (SF-539 CNS)
